Experimental data reported in patent US6740648B2, “Treatment of pulmonary hypertension” (Warner-Lambert Company, priority 2000, dated 2004).
Entries after “also recorded” stand apart in the source; their conditions may differ. Structures can show the parent of a compound that is named as a salt.

Experiments:
[1] = test system: AVP-induced platelet aggregation; experiment: AVP-induced platelet aggregation in Phase I subjects (evidence of V1A antagonist activity); type: in vivo, human; conditions: 20 mg/day orally or 2.5 mg IV
[2] = Example 1: double-blind, placebo-controlled IV dose-response study of cardiopulmonary hemodynamics in patients with Class III/IV heart failure; type: in vivo, human
Method: Patients must be receiving background therapy of diuretics, ACE inhibitors, and optionally digoxin and/or β-blocker; patients are stratified as to whether they are receiving concomitant β-blocker treatment. Patients should take their daily dose of concomitant heart failure medications within 2 hours of catheter insertion. No additional doses of background heart failure medications should be administered during the study treatment phase. After insertion of a balloon-flotation pulmonary artery catheter, serial measurements are obtained over an 8-to 18-hour baseline and stabilization period.
Hemodynamic parameters and vital signs are measured at baseline during the 2 hours prior to drug administration and 30 minutes, 1, 2, 3, 4, 6, 8, and 12 hours after start of the IV infusion. A urethral catheter is placed and urine output is measured hourly for 2 hours prior until 12 hours post-study drug administration. Fluid intake is restricted to 250 mL every 2 hours (except at time of IV infusion) from time of insertion of a Swan-Ganz catheter and throughout the treatment period. […] Serum electrolytes, BUN, creatinine, and serum osmolality are measured at baseline and 4 and 12 hours post treatment. Clinical laboratory and vasopressin plasma levels are measured at baseline and 12 hours post-drug administration. A numeric rating scale for assessing dyspnea is administered at baseline and 12 hours after study drug administration.
Patients refrain from taking concomitant heart failure medications during the 12-hour treatment period. Patients are stratified as to whether they are receiving concomitant treatment with a β-blocker. Hemodynamic parameters (cardiac output, intrapulmonary and systemic pressures) and vital signs are measured at 0.5, 1, 2, 3, 4, 6, 8, and 12 hours after start of the IV infusion. Clinical laboratory and vasopressin plasma levels are measured 12 hours postdose. […] Serum electrolytes, BUN, creatinine and serum osmolality are measured at 4 and 12 hours posttreatment. Hourly urine output measurements are obtained during the entire 12-hour treatment phase. The numeric rating scale for assessing dyspnea is administered 12 hours postadministration of study medication.
For this study, hemodynamic efficacy parameters of PCWP, CI, SVR, and PVR are evaluated in terms of their response profile. The response profile is assessed in terms of peak change, and area under the curve (AUC) delimited by the parameter change from baseline and measurement times. The peak change is defined as the maximum change from baseline, within the 3 to 6 hours after treatment administration, in the hemodynamic parameter of interest. The baseline value is considered the last acceptable measurement taken before treatment administration. The AUC is determined using the “linear trapezoidal rule,” which delimits areas of each trapezoid by: two points on the graph of change from baseline against time, perpendiculars from the points to the X-axis, and the X-axis are summed up to get AUC. If measurements are missing at certain times, the AUC are calculated using all other available observations. Dose response over the treatment groups are assessed for selected measures.
The secondary parameter of urine output is summarized at baseline, and each collection time. In addition, a numeric rating scale is used for assessing dyspnea. The corresponding change from baseline for these parameters is summarized. Descriptive summaries include mean, standard error, median, minimum, and maximum. Other concurrently measured hemodynamic parameters (ie, RA, PAs, PAd, cuff SBP, cuff DBP, calculated MAP, and HR) is also summarized.
Hemodynamic assessments are obtained at baseline and at 0.5, 1, 2, 3, 4, 6, 8, and 12 hours after administration of study medication.

[3] = Safety and tolerability in Phase I studies (approximately 250 subjects); type: in vivo, human
V2-receptor = biological target: T1, V2-receptor (Homo sapiens, UniProt P30518); experiment: Aquaretic action in normal subjects (evidence of V2-receptor antagonism); type: in vivo; conditions: for Dose at which aquaretic action with decrease in urine osmolarity starts: normal subjects
T1 construct: from tissue; host or cells: healthy human subjects in vivo (renal effect)

[4] = Example 2: placebo-controlled study of YM087 20 mg IV twice, relief of pulmonary congestion in acute decompensated heart failure; type: in vivo, human; conditions: listed as conivaptan, hydrochloride
Method: The trial explores the effect on relief of pulmonary congestion in patients with a history of NYHA Class II-IV heart failure hospitalized in a monitored unit for acute decompensated heart failure. Patients may be on background therapy optionally with ACE-inhibitors, diuretics, digoxin, and β-blockers as long as these medications (excepting diuretics) were initiated prior to admission. On arrival to the hospital, the patient was assessed for enrollment criteria. If the criteria are met, consent was obtained and the patient enrolled. Patients needing treatment with a parenteral inotropic agent (eg milrinone; dobutamine) or who are intubated are excluded. Respiratory rate will be measured. Clinical laboratory parameters are measured if not assessed within 2 hours of screening. Once consented, the patient's clinical distress was assessed by vital signs, the Acute Heart Failure Score, the Physician/Study Coordinator Clinical Assessment Scale for patient's respiratory and global status, and the Patient Visual Analog Scale for respiratory and global status. […] The baseline respiratory rate was measured 5 minutes prior to administration of study medication (must be ≧24 to meet inclusion criteria). […] Clinical laboratory parameters were assessed 8 and 24 hours after start of the first infusion of study medication. […]

[5] = Example 3: placebo-controlled study of YM087 40 mg IV twice, relief of pulmonary congestion in exacerbation of congestive heart failure; type: in vivo, human; conditions: FIG. 8; listed as conivaptan, hydrochloride
Method: Patient who meets the inclusion criteria will then be randomized to 1 of 2 treatment group: double-blind treatment phase. […] Patients were administered 100% oxygen for 5 to 10 minutes, and blood gases were measured for assessment of A-a gradient. A baseline respiratory rate is measured 5 minutes prior to administration of study medication (RR must be ≧22 to meet inclusion criteria). […] All patients received usual care at the discretion of the investigator including IV loop diuretics, oxygen, morphine, and IV vasodilators. All patients were administered IV furosemide 20 mg as a minimum dose initially. No additional doses of diuretics should be administered for at least 2 hours after administration of the first dose of study medication; the dose was subsequently adjusted as needed based on the patient's clinical status at the discretion of the investigator. […] Body weight was assessed prior the second dose of study medication. […] During the study, the patient should be receiving the same % oxygen for all respiratory rate and A-a gradient assessments. […] Clinical laboratory parameters were assessed 8 and 24 hours after the first dose of study medication. Serum electrolytes, BUN, and creatinine were measured 4, 8, 12, 18, and 24 hours after administration of the first dose of study medication.

[6] = test system: AVP-induced dermal vasoconstriction; experiment: AVP-induced dermal vasoconstriction in Phase I subjects; type: in vivo, human; conditions: 50 mg IV
[7] = approximately 250 subjects treated

T1 sequence (P30518 whole entry): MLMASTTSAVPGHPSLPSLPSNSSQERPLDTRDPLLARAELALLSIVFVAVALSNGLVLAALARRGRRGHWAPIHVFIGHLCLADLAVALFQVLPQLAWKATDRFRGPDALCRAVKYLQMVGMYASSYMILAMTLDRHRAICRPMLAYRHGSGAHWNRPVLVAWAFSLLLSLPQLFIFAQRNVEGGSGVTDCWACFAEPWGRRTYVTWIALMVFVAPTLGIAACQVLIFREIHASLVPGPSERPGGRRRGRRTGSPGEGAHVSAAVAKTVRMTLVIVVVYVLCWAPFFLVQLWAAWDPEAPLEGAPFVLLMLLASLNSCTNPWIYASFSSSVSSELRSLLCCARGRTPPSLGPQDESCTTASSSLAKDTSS

Compound: Cc1nc2c([nH]1)-c1ccccc1N(C(=O)c1ccc(NC(=O)c3ccccc3-c3ccccc3)cc1)CC2 [YM087, N-[4-(2-methyl-4,5,6-tetrahydroimidazo[4,5-d][1]benzazepin-6-ylcarbonyl)phenyl]biphenyl-2-carboxamide hydrochloride]
- Inhibition of AVP-induced platelet aggregation [1]: Inhibition
- Reduction of right atrial pressure (RAP) ([2]; 40 mg IV dose, FIG. 1): ≤ 3 mm Hg
- Reduction of pulmonary artery systolic pressure (PAs) ([2]; 40 mg IV dose, FIG. 2): ≤ 4 mm Hg
- Right atrial pressure (RAP) ([2]; FIG. 1): reduce
- Pulmonary artery systolic pressure (PAS) ([2]; FIG. 2): reduce
- Mean arterial pressure (MAP) ([2]; FIG. 3): no effect
- Systolic blood pressure (SBP) ([2]; FIG. 4): no effect
- Systemic hemodynamics ([2]; human, in vivo): no effect
- Changes in inspiratory crackles compared to placebo ([2]; post IV dose of 10, 20, 40 mg, FIG. 9): fewer patients on conivaptan had worsened inspiratory crackles
- Tolerability of aquaretic effects at higher doses ([3]; 120 mg QD or 60 mg BID orally, or 50 mg IV): too uncomfortable to be tolerable
- Drug-related serious adverse events [3, 7]: no drug-related serious adverse events were reported
- Major safety concerns [3, 7]: no major safety concerns were identified
- Urinary osmolarity ([3]; at higher doses): decreased
- Plasma osmolarity ([3]; at higher doses, with or without an increase in plasma sodium): increased
- Biochemical or hematological laboratory parameters ([3]; human, in vivo): No drug-related trend
- Most frequent adverse events regardless of treatment association ([3]; human, in vivo): mild or moderate thirst and mild headache
- Vital signs (blood pressure and heart rate) ([3]; human, in vivo): unaffected
- Other adverse events ([3]; human, in vivo, hydrochloride): flushes, a sensation of cold extremities, abdominal complaints, abnormal stools, syncope, dizziness, palpitations, and postural hypotension
- Grand mal seizure ([3]; one patient with severe heart failure, 40 mg BID): grand mal seizure that was possibly related to YM087
- Leukopenia / decrease in white blood cell counts ([3]; three subjects who received YM087, one who received placebo, hydrochloride): minor, reversible decrease in white blood cell counts; also recorded: minor, reversible leukopenia
- Duration of increased urine production rate postdosing (V2-receptor; IV 50 mg/day): ≤ 6 h
- Duration of increased urine production rate postdosing (V2-receptor; IV doses up to 250 μg/kg): up to 3 hours
- Dose at which aquaretic action with decrease in urine osmolarity starts (V2-receptor; IV): 0.05 mg/kg
- Dose at which aquaretic action with decrease in urine osmolarity starts (V2-receptor; oral): 15 mg
- Patient visual analog scale of respiratory status ([4]; FIG. 6): improved respiratory status; also recorded: improvement
- Patient numeric rating scale of respiratory status ([4]; FIG. 7): improved respiratory status; also recorded: improvement
- Alveolar-arterial gradient compared to placebo [5]: improved; also recorded: apparent improvement
- Inhibition of AVP-induced dermal vasoconstriction [6]: Total inhibition
